# Publication PMC6554663, “Pharmaceutical Effects of Inhibiting the Soluble Epoxide Hydrolase in Canine Osteoarthritis” (Frontiers in Pharmacology, 2019)
# Values joined by “and” are separate entries in the source; they are usually repeats but may differ in a detail not shown here. Identical values can stand only once. Like-named read-outs stand apart in the source and are kept apart here.
# How the values were obtained:
# [1] = Blood and synovial fluid concentrations in treated osteoarthritic dogs; assay type: in vivo, dog; conditions: for Blood concentration D5 / Synovial fluid concentration D1 / Synovial fluid concentration D5: po, qd x 5, detected EC3039, individual dogs;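 on Synovial fluid concentration D1: synovial fluid also sampled on Day 1 after the pain assessment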
# Protocol: (§1) Eight satellite dogs (2 per each group) had whole blood collected for PK analysis on study Days […]. On Day 1, blood was collected immediately prior to dosing, and again at 0.25, 0.5, 1, 2, 4, 6, and 8 (±5 min) after dosing. On Day 2 through 4, blood was collected 0.5 h (±5 min) after dosing. On Day 5 blood was collected immediately prior to dosing, and again at 0.25, 0.5, 1, 2, 4, 6, 8 (±5 min), 24, 48, and 72 h (±30 min) post treatment. […] For all blood samples, a minimum of 3 mL of whole blood was collected from a suitable vein as per written and approved standard operating procedures. The blood was transferred to K2EDTA (spray dried) blood tube and inverted gently multiple times to ensure proper mixing of the blood and anticoagulant. On study Day 5, synovial fluid was collected by arthrocentesis immediately after the subject completed the questionnaire (approximately […] after dosing). Subjects were anesthetized as per written and approved Standard Operating Procedures. A minimum of 0.1 mL of synovial fluid was collected from each subject. Samples were frozen in an upright position and stored at -80°C ± 4°C before being shipped to UC Davis for analysis.
# Pain and function were assessed by a questionnaire answered by blinded technicians based on observation of study animals housed at InterVivo. The survey was adapted from the canine brief pain inventory (CBPI), which was developed based on clinical questionnaires in which owners score the function and pain level of their pets with existing pain conditions ([Brown et al., 2007]). Modifications to the questionnaire attempted to account for differences between owner pain evaluation of pets and pain evaluation of laboratory dogs by technical staff. For survey administration, blinded technicians attempted to elicit objective behavior-specific measures of function and pain level across a variety of normal canine behaviors (e.g., walking, trotting, galloping, rearing, and stair-climbing, etc.). For this, one technician was responsible for soliciting the relevant behaviors from a dog using encouragement and/or food rewards, while the evaluating technician scored function and observable pain using the modified CBPI questionnaire. Subjects were tested daily on Days -7 through -3, to develop baseline scores, and again on Days 1 through 5 administered 1.5 h after dosing. Dosing occurred in the morning, and observations were recorded 1.5 h after dosing, to limit time-of-day variability. Questions are listed in Supplementary Table S3. Animals in treatment groups had blood and synovial fluid collected ∼2 h after the last dose on day 5 (immediately following the study questionnaire) to confirm plasma concentrations in treated animals. Full pharmacokinetic assessments were collected from a satellite group of animals so as not to interfere with pain assessment.
# Microsomal stability = assay type: in vitro ADME, dog; conditions: 60 min, 37°C
# Protocol: Male and female dog liver microsomes (Xenotech) were diluted in potassium phosphate buffer (0.1M, pH 7.4), MgCl2 (3.15 mM), and sodium EDTA (1.05 mM) to a final protein concentration of 1 mg/mL. Compounds were added at 0.1 mM in methanol at 1% and microsomes were activated with 5% (v/v) NADPH regenerating system (100 μL sodium phosphate buffer (0.1M, pH 7.4), 50 μL, glucose-6-phosphate in sodium phosphate buffer (0.1M, pH 7.4), 50 μL NADP+ in sodium phosphate (0.1M, pH 7.4), and 50 μL of 100 Units/mL of […]). […] Compounds were incubated without microsomes or NADPH as negative controls.
# Canine sEH = target: T1, Canine sEH (Canis lupus familiaris, UniProt A0A8I3NJL8); test: Canine sEH inhibition IC50; assay type: biochemical; conditions: canine enzyme partially purified from liver cytosol
# T1 construct: canine enzyme was partially purified on a Q-sepharose column from liver cytosol; from tissue; host or cells: dog liver cytosol, about 10-fold purification on Q-sepharose
# T1 sequence (A0A8I3NJL8 1-556): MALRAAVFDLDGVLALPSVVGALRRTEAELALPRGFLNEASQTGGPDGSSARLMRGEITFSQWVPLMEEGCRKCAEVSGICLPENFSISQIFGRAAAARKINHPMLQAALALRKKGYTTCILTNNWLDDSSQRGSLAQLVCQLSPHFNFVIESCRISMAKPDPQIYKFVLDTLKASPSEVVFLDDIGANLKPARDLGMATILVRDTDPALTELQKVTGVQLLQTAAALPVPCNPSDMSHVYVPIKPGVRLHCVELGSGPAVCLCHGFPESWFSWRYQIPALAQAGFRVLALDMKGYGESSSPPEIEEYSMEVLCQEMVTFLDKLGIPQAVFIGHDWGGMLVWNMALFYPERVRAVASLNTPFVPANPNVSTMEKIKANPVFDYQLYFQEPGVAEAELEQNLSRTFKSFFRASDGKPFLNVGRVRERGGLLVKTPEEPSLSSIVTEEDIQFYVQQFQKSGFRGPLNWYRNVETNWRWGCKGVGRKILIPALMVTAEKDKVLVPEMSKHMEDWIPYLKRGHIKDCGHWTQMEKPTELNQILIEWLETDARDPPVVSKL
# [2] = PK analysis in satellite dogs; assay type: in vivo, dog; conditions: for half-life / AUC(0-t) / Cmax: whole blood; for AUC(0-t) / Cmax: po
# Protocol: as §1
# For PK analysis in the satellite group, individual parameters were calculated by fitting blood concentrations to a non-compartmental analysis using Kinetica software (Thermo Fisher Scientific version 5.1). Using the log-linear trapezoidal method, the area under the curve were calculated and were extrapolated to infinity using the last measured plasma concentration (Clast), defined as the timepoint collected 72 h after the last dose or 8 hr after the first dose on day 1, divided by the terminal slope (λz).
# Solubility of sEHI = assay type: physicochemical
# Protocol: […] The non-dissolved compounds were filtered through a 0.22 μm centrifuge filter at 40°C and the supernatant was further diluted 10 times with methanol. The samples were analyzed by LC/MS-MS.
# [3] = female, beagle, dog, 1 mg/kg, dosed EC3039 1 mg/kg oral qd, female dog, Day 1, detected EC3039, blood
# [4] = female, beagle, dog, 1 mg/kg, dosed EC3039 1 mg/kg oral qd, female dog, Day 5, detected EC3039, blood
# [5] = female, beagle, dog, 5 mg/kg, dosed EC3039 5 mg/kg oral qd, female dog, Day 1, detected EC3039, blood
# [6] = female, beagle, dog, 5 mg/kg, dosed EC3039 5 mg/kg oral qd, female dog, Day 5, detected EC3039, blood
# [7] = male, beagle, dog, 1 mg/kg, dosed EC3039 1 mg/kg oral qd, male dog, Day 1, detected EC3039, blood
# [8] = male, beagle, dog, 1 mg/kg, dosed EC3039 1 mg/kg oral qd, male dog, Day 5, detected EC3039, blood
# [9] = male, beagle, dog, 5 mg/kg, dosed EC3039 5 mg/kg oral qd, male dog, Day 1, detected EC3039, blood
compound,measurement,setting,value
"CN(C(=O)N[C@H]1CC[C@H](Oc2ccc(C(=O)O)cc2)CC1)c1ccc(OC(F)(F)F)cc1 [EC3039, trans-4-{4-[3-methyl-3-(4-trifluoromethoxy-phenyl)-ureido]-cyclohexyloxy}-benzoic acid]",Blood concentration D5,"[1]; dosed EC3039 1 mg/kg, 1 mg/kg",0.126 µg/mL and 0.176 µg/mL and 5.34 µg/mL and 0.347 µg/mL and 0.346 µg/mL and 0.081 µg/mL and 0.408 µg/mL and 0.328 µg/mL
same,Synovial fluid concentration D1,"[1]; dosed EC3039 1 mg/kg, 1 mg/kg",1220 ng/mL and 2710 ng/mL and 4100 ng/mL and 3350 ng/mL and 3100 ng/mL and 1390 ng/mL and 3430 ng/mL and 2100 ng/mL
same,Synovial fluid concentration D5,"[1]; dosed EC3039 1 mg/kg, 1 mg/kg",1630 ng/mL and 1480 ng/mL and 11900 ng/mL and 1840 ng/mL and 1440 ng/mL and 586 ng/mL and 2190 ng/mL and 1930 ng/mL
same,Blood concentration D5,"[1]; dosed EC3039 5 mg/kg, 5 mg/kg",0.859 µg/mL and 0.672 µg/mL and 5.55 µg/mL and 6.25 µg/mL and 0.722 µg/mL and 6.19 µg/mL and 5.65 µg/mL and 0.929 µg/mL
same,Synovial fluid concentration D1,"[1]; dosed EC3039 5 mg/kg, 5 mg/kg",5850 ng/mL and 13570 ng/mL and 14290 ng/mL and 14240 ng/mL and 5220 ng/mL and 14300 ng/mL and 14700 ng/mL and 9520 ng/mL
same,Synovial fluid concentration D5,"[1]; dosed EC3039 5 mg/kg, 5 mg/kg",5830 ng/mL and 4640 ng/mL and 9960 ng/mL and 12400 ng/mL and 16100 ng/mL and 11700 ng/mL and 5960 ng/mL
same,sEHI in blood and synovial fluid relative to dogs treated with EC1728,[1]; high dose group (5 mg/kg),~10 ×
same,sEHI in blood and synovial fluid relative to dogs treated with EC1728,[1]; low dose group (1 mg/kg),approximately 2 ×
same,% Parent + NADPH,Microsomal stability; female dog liver microsomes,85% and 85 ± 2%
same,% Parent − NADPH,Microsomal stability; female dog liver microsomes,93 ± 5%
same,% Parent − NADPH,Microsomal stability; male dog liver microsomes,97 ± 4%
same,IC50,Canine sEH,4.42 nM
same,EC3039 in blood of dogs administered EC1728,[2]; EC1728 at 1 mg/kg or 5 mg/kg,no detectable amounts
same,blood concentrations relative to IC50 for sEH,"[2]; all treatment groups, duration of the study",exceeded the IC50
same,fold increase in AUC after fivefold increase in dose,"[2]; beagle, dog, in vivo",~18 fold
same,fold increase in Cmax after fivefold increase in dose,"[2]; beagle, dog, in vivo",30 to 40 fold
same,half-life,"[2]; beagle, dog, oral, satellite dogs, range over both compounds, Table 3, read-out: half-life",24 to 40 h
same,half-life,"[2]; beagle, dosed EC3039 1 mg/kg oral qd, female dog, Day 5, detected EC3039, blood, read-out: T1/2 (converted)",40 h
same,half-life,"[2]; beagle, dosed EC3039 1 mg/kg oral qd, male dog, Day 5, detected EC3039, blood, read-out: T1/2 (converted)",33 h
same,half-life,"[2]; beagle, dosed EC3039 5 mg/kg oral qd, female dog, Day 5, detected EC3039, blood, read-out: T1/2 (converted)",25 h
same,half-life,"[2]; beagle, dosed EC3039 5 mg/kg oral qd, male dog, Day 5, detected EC3039, blood, read-out: T1/2 (converted)",27 h
same,portion metabolized by demethylation to form EC1728,[2]; dogs dosed EC3039,< 10%
same,AUC(0-t),[2]; [3],3.94 µg·h/mL
same,Cmax,[2]; [3],0.568 µg/mL
same,AUC(0-t),[2]; [4],361 µg·h/mL
same,Cmax,[2]; [4],17.3 µg/mL
same,AUC(0-t),[2]; [5],67.2 µg·h/mL
same,Cmax,[2]; [5],18 µg/mL
same,AUC(0-t),[2]; [6],589 µg·h/mL
same,Cmax,[2]; [6],30.9 µg/mL
same,AUC(0-t),[2]; [7],2.49 µg·h/mL
same,Cmax,[2]; [7],0.4 µg/mL
same,AUC(0-t),[2]; [8],72.1 µg·h/mL
same,Cmax,[2]; [8],2.3 µg/mL
same,AUC(0-t),[2]; [9],46.5 µg·h/mL
same,Cmax,[2]; [9],16.9 µg/mL
same,Cmax,"[2]; male, beagle, dog, 5 mg/kg, dosed EC3039 5 mg/kg oral qd, male dog, Day 5, detected EC3039, blood",32.1 µg/mL
same,solubility,"Solubility of sEHI; PEG300, organic solvent or mixture",99 ± 1 mg/mL
same,solubility at 24 h,"Solubility of sEHI; aqueous buffer, thermodynamic from solid, PBS pH 7.4, 40°C, 24 h",0.13 ± 0.015 mg/mL
